Reference: PMC10537105, “Derivatives Incorporating Acridine, Pyrrole, and Thiazolidine Rings as Promising Antitumor Agents” (Molecules, 2023)
Like-named read-outs stand apart in the source and are kept apart here.

Tests used:
MCF-7 = assay: MTT assay, MCF-7 cells; assay type: cell-based, human; conditions: read-out: IC50 values ± SD, MCF-7
Source text: (§1) The impact of acridine spiro derivatives 6–10 (Figure 13) on the metabolic activity of various tumor cell lines HCT-116 (human colorectal carcinoma), Jurkat (human leukemia cells), HeLa (human cervical adenocarcinoma), MDA-MB-231, and MCF-7 (human breast adenocarcinoma), and normal cell lines COS-7 (monkey kidney cells) and BJ-5ta (skin fibroblasts) was investigated using the MTT assay. This assay measures the conversion of yellow 3-(4,5-dimethylthiazol-2-yl)-2,5-diphenyltetrazolium bromide (MTT) to insoluble purple formazan by metabolically active cells. The antiproliferative activities of the tested compounds were determined based on the results from the MTT assay, and the inhibitory concentration values (IC50) are presented in Table 5.
(§2) The human cancer cell lines employed in this study were sourced from reputable institutions, including the American Type Culture Collection (ATCC; Manassas, VA, USA) and the European Collection of Authenticated Cell Cultures (ECACC, Salisbury, UK). Specifically, HeLa (93021013, human cervical adenocarcinoma), HCT116 (CCL-247TM, human colorectal carcinoma), and Jurkat (88042803, human leukemic T-cell lymphoma) were cultured in RPMI 1640 medium (Biosera, Kansas City, MO, USA). In contrast, MCF-7 (HTB-22TM, human breast adenocarcinoma, ER+), MDA-MB-231 (HTB-26TM, human breast adenocarcinoma, ER−), and COS-7 (CRL-1651TM, kidney fibroblasts) were nurtured in high-glucose Dulbecco’s Modified Eagle Medium (DMEM) supplemented with sodium pyruvate (Biosera). Furthermore, BJ-5ta (CRL-4001TM, human dermal fibroblasts) was cultured in a composite medium of high-glucose DMEM and M199 (4:1) (Biosera), supplemented with Hygromycin B (0.01 mg/mL; Merck, Darmstadt, Germany). All culture media were enriched with a 10% fetal bovine serum (FBS; Gibco, Thermo Scientific, Rockford, IL, USA) and an antibiotic/antimycotic solution (Merck) to ensure optimal growth conditions. The cells were meticulously maintained within a humidified environment containing 5% CO2 at 37 °C. Regular screenings for mycoplasma contamination were conducted using Hoechst 33342 staining (Merck), confirming the integrity of the cell lines.
(§3) To assess the antiproliferative impact of the synthesized compounds 6–10, their half-maximal inhibitory concentration (IC50) and the MTT colorimetric assay were employed. MDA-MB-231 and MCF-7 cells were seeded into 96-well microplates (SARSTEDT, Nümbrecht, Germany) at a density of 5 × 10^3 cells per well. After 24 h of cell seeding, various concentrations (100, 50, and 10 µmol/L) of acridine derivatives 6–10 were introduced, alongside cisplatin (utilized as a reference) at concentrations of 5, 10, 20, 50, and 100 µmol/L. Subsequent to 24, 48, and 72 h of treatment, the cells in each well underwent incubation with MTT (5 mg/mL, Sigma-Aldrich Chemie, Steinheim, Germany) for 4 h at 37 °C in the dark. During this period, mitochondrial oxidoreductases metabolized MTT, forming insoluble formazan. Following this, 100 µL of SDS (10% […]) was added to dissolve the formazan crystals, and the cells were incubated for an additional 12 h. Absorbance at 540 nm was measured using the automated Cytation™ 3 Cell Imaging Multi-Mode Reader (Biotek, Winooski, VT, USA). Each test was performed in triplicate, and three independent experiments were conducted to ensure precision and reliability.

MDA-MB-231 = assay: MTT assay, MDA-MB-231 cells; assay type: cell-based, human; conditions: read-out: IC50 values ± SD, MDA-MB-231
Source text: as §1, §2, §3

HeLa = assay: MTT assay, HeLa cells; assay type: cell-based, human; conditions: 72 h of incubation, read-out: IC50 values ± SD, HeLa
Source text: as §1, §2, §3

HCT-116 = assay: MTT assay, HCT-116 cells; assay type: cell-based, human; conditions: MTT, 72 h of incubation, read-out: IC50 values ± SD, HCT-116
Source text: as §1, §2, §3

Jurkat = assay: MTT assay, Jurkat cells; assay type: cell-based, human; conditions: MTT, 72 h of incubation, read-out: IC50 values ± SD, Jurkat
Source text: as §1, §2, §3

COS-7 = assay: MTT assay, COS-7 normal cells; assay type: cell-based, monkey; conditions: normal cell line, read-out: IC50 values ± SD, COS-7
Source text: as §1, §2, §3

BJ-5ta = assay: MTT assay, BJ-5ta normal fibroblasts; assay type: cell-based, human; conditions: 72 h of incubation, normal cell line, read-out: IC50 values ± SD, BJ-5ta
Source text: as §1, §2, §3

[1] = Homo sapiens, MCF7, 72 h of incubation
[2] = Homo sapiens, MDA-MB-231, 72 h of incubation
[3] = Primates, COS-7, 72 h of incubation

| Compound | IC50 (MCF-7; [1]) | IC50 (MDA-MB-231; [2]) | IC50 (HeLa; Homo sapiens, HeLa) | IC50 (HCT-116; Homo sapiens, HCT-116) | IC50 (Jurkat; Homo sapiens, Jurkat) | IC50 (COS-7; [3]) | IC50 (BJ-5ta; Homo sapiens, Fibroblast) | melting point | IC50 (MCF-7; 72 h of incubation) | IC50 (MDA-MB-231; 72 h of incubation) | IC50 (HeLa) | IC50 (HCT-116) | IC50 (Jurkat) | IC50 (COS-7; 72 h of incubation) | IC50 (BJ-5ta) |
| --- | --- | --- | --- | --- | --- | --- | --- | --- | --- | --- | --- | --- | --- | --- | --- |
| CC1S/C(=N\N2C(=O)C(C#N)=CC23c2ccccc2Nc2ccccc23)N(c2ccccc2)C1=O (stereo not shown) [9a, 1′-{[(2Z)-5-Methyl-4-oxo-3-phenyl-1,3-thiazolidin-2-ylidene]amino}-5′-oxo-1′,5′-dihydro-10H-spiro[acridine-9,2′-pyrrole]-4′-carbonitrile] | > 100 µM | > 100 µM | > 100 µM | > 100 µM | > 100 µM | > 100 µM | > 100 µM | 245 to 249 °C (dec.) | – | – | – | – | – | – | – |
| COc1ccc(NC(=S)NN2C(=O)C(C#N)=CC23c2ccccc2Nc2ccccc23)cc1 [6b, 3-{4′-Cyano-5′-oxo-1′,5′-dihydro-10H-spiro[acridine-9,2′-pyrrol]-1′-yl}-1-(4-methoxyphenyl)thiourea] | > 100 µM | > 100 µM | > 100 µM | 41.5 ± 4.77 µM | 39.9 ± 5.19 µM | > 100 µM | > 100 µM | – | – | – | – | – | – | – | – |
| CC1S/C(=N\N2C(=O)C(C#N)=CC23c2ccccc2Nc2ccccc23)N(c2ccc(F)cc2)C1=O (stereo not shown) [9d, 1′-{[(2Z)-3-(4-Fluorophenyl)-5-methyl-4-oxo-1,3-thiazolidin-2-ylidene]amino}-5′-oxo-1′,5′-dihydro-10H-spiro[acridine-9,2′-pyrrole]-4′-carbonitrile] | > 100 µM | > 100 µM | > 100 µM | > 100 µM | > 100 µM | > 100 µM | > 100 µM | 235 to 239 °C (dec.) | – | – | – | – | – | – | – |
| CCOC(=O)/C=C1\S/C(=N\N2C(=O)C(C#N)=CC23c2ccccc2Nc2ccccc23)N(c2ccc([N+](=O)[O-])cc2)C1=O [8e, Ethyl 2-[(2Z,5Z)-2-({4′-cyano-5′-oxo-1′,5′-dihydro-10H-spiro[acridine-9,2′-pyrrol]-1′-yl}imino)-3-(4-nitrophenyl)-4-oxo-1,3-thiazolidin-5-ylidene]acetate] | 9.48 ± 0.27 µM | 8 ± 1.32 µM | 6.5 ± 0.43 µM | 5.45 ± 0.01 µM | 5.6 ± 0.04 µM | 10.2 ± 0.5 µM | 7.07 ± 0.26 µM | 183 to 186 °C (dec.) | – | – | – | – | – | – | – |
| CCCC1S/C(=N\N2C(=O)C(C#N)=CC23c2ccccc2Nc2ccccc23)N(c2ccc(F)cc2)C1=O (stereo not shown) [10d, 1′-{[(2Z)-3-(4-Fluorophenyl)-4-oxo-5-propyl-1,3-thiazolidin-2-ylidene]amino}-5′-oxo-1′,5′-dihydro-10H-spiro[acridine-9,2′-pyrrole]-4′-carbonitrile] | > 100 µM | > 100 µM | > 100 µM | > 100 µM | > 100 µM | > 100 µM | > 100 µM | 230 to 232 °C (dec.) | – | – | – | – | – | – | – |
| CCCC1S/C(=N\N2C(=O)C(C#N)=CC23c2ccccc2Nc2ccccc23)N(c2cccc(OC)c2)C1=O (stereo not shown) [10c, 1′-{[(2Z)-3-(3-Methoxyphenyl)-4-oxo-5-propyl-1,3-thiazolidin-2-ylidene]amino}-5′-oxo-1′,5′-dihydro-10H-spiro[acridine-9,2′-pyrrole]-4′-carbonitrile] | > 100 µM | > 100 µM | > 100 µM | > 100 µM | > 100 µM | > 100 µM | > 100 µM | 229 to 231 °C (dec.) | – | – | – | – | – | – | – |
| N.N.[Cl][Pt][Cl] [Cisplatin, cisplatin, reference compound] | – | – | – | – | – | – | – | – | 26.5 ± 3.19 µM | 7.1 ± 0.9 µM | 35.4 ± 2.5 µM | 12.4 ± 2.1 µM | 8.18 ± 1.6 µM | 24.6 ± 1.4 µM | 36 ± 1.87 µM |
| CCOC(=O)/C=C1\S/C(=N\N2C(=O)C(C#N)=CC23c2ccccc2Nc2ccccc23)N(c2ccc(OC)cc2)C1=O [8b, Ethyl 2-[(2Z,5Z)-2-({4′-cyano-5′-oxo-1′,5′-dihydro-10H-spiro[acridine-9,2′-pyrrol]-1′-yl}imino)-3-(4-methoxyphenyl)-4-oxo-1,3-thiazolidin-5-ylidene]acetate] | 12.8 ± 4.24 µM | 7.43 ± 0.72 µM | 16.9 ± 3.5 µM | 5.37 ± 0.01 µM | 5.67 ± 0.03 µM | 11.5 ± 1.74 µM | 6.82 ± 0.24 µM | – | – | – | – | – | – | – | – |
